Assay results from the NIST ThermoML archive (doi:10.1021/je900615b).
± gives the expanded uncertainty stated by the source.

Conditions: Liquid, Hot wire method

CCOCC [diethyl ether]
Conditions | thermal conductivity [W/m/K]
234.64 K, 100 kPa | 0.1453 ± 0.003
234.88 K, 20100 kPa | 0.1543 ± 0.0031
234.9 K, 30300 kPa | 0.1565 ± 0.0032
234.92 K, 20100 kPa | 0.1542 ± 0.0031
235.03 K, 100 kPa | 0.1461 ± 0.003
235.09 K, 20200 kPa | 0.1538 ± 0.0031
235.1 K, 10100 kPa | 0.1496 ± 0.0031
235.17 K, 5100 kPa | 0.1478 ± 0.003
235.22 K, 30200 kPa | 0.1563 ± 0.0032
235.4 K, 30400 kPa | 0.1559 ± 0.0032
235.48 K, 10100 kPa | 0.1499 ± 0.0031
235.53 K, 5100 kPa | 0.1479 ± 0.003
235.89 K, 10100 kPa | 0.15 ± 0.0031
235.93 K, 5100 kPa | 0.1477 ± 0.003
235.94 K, 100 kPa | 0.1456 ± 0.003
254.64 K, 20200 kPa | 0.1484 ± 0.003
254.74 K, 30000 kPa | 0.1514 ± 0.0031
254.75 K, 5200 kPa | 0.1408 ± 0.0029
254.86 K, 30000 kPa | 0.1512 ± 0.0031
254.91 K, 19700 kPa | 0.1477 ± 0.003
254.95 K, 100 kPa | 0.1386 ± 0.0028
254.98 K, 10100 kPa | 0.1427 ± 0.0029
254.99 K, 4900 kPa | 0.1411 ± 0.0029
255.26 K, 100 kPa | 0.1386 ± 0.0028
255.28 K, 29900 kPa | 0.1512 ± 0.0031
255.34 K, 20200 kPa | 0.1475 ± 0.003
255.37 K, 5100 kPa | 0.1407 ± 0.0029
255.38 K, 10200 kPa | 0.1432 ± 0.003
255.69 K, 10000 kPa | 0.1427 ± 0.003
255.7 K, 100 kPa | 0.1386 ± 0.0028
274.69 K, 100 kPa | 0.1315 ± 0.0027
274.7 K, 20100 kPa | 0.1409 ± 0.0029
274.71 K, 5000 kPa | 0.1338 ± 0.0027
274.71 K, 10000 kPa | 0.1363 ± 0.0028
274.92 K, 30000 kPa | 0.1447 ± 0.003
274.93 K, 20000 kPa | 0.1409 ± 0.0029
274.96 K, 100 kPa | 0.1319 ± 0.0027
274.97 K, 10000 kPa | 0.1362 ± 0.0028
275.21 K, 30000 kPa | 0.145 ± 0.003
275.37 K, 100 kPa | 0.1317 ± 0.0027
275.38 K, 5000 kPa | 0.1339 ± 0.0027
275.56 K, 10100 kPa | 0.1364 ± 0.0028
275.64 K, 30000 kPa | 0.145 ± 0.003
275.7 K, 20000 kPa | 0.1407 ± 0.0029
275.79 K, 5000 kPa | 0.134 ± 0.0027
294.61 K, 20200 kPa | 0.1366 ± 0.0029
294.79 K, 10100 kPa | 0.1311 ± 0.0027
294.81 K, 5100 kPa | 0.128 ± 0.0026
294.83 K, 29900 kPa | 0.1419 ± 0.0029
294.93 K, 20000 kPa | 0.1366 ± 0.0028
295.04 K, 5000 kPa | 0.128 ± 0.0026
295.06 K, 10100 kPa | 0.1309 ± 0.0027
295.08 K, 29700 kPa | 0.1416 ± 0.003
295.25 K, 20000 kPa | 0.1365 ± 0.0028
295.26 K, 10000 kPa | 0.1308 ± 0.0027
295.31 K, 100 kPa | 0.1248 ± 0.0026
295.43 K, 5100 kPa | 0.1277 ± 0.0026
295.53 K, 29900 kPa | 0.1419 ± 0.0029
295.6 K, 100 kPa | 0.1252 ± 0.0026
296.02 K, 100 kPa | 0.125 ± 0.0026
